Assay results published in patent publication US6716845B2, “Barbituric acid derivatives” (Hoffmann-La Roche Inc., priority 2001, dated 2004).

target: T1, MMP-8, catalytic domain (Homo sapiens, UniProt P22894); experiment: Inhibition of MMP-8 catalytic domain, fluorogenic DNP-heptapeptide substrate cleavage; type: biochemical; conditions: not given
T1 construct: Enzyme: 8 nM catalytic domain (Met80-Gly242) of human neutrophil collagenase (MMP-8); made in house
Description: The results are evaluated by plotting the reciprocal reaction rate against the concentration of the inhibitor.
The synthetic collagenase substrate is a heptapeptide which is coupled, at the C terminus, with DNP (dinitrophenol). Said DNP residue quenches by steric hindrance the fluorescence of the adjacent tryptophane of the heptapeptide. After cleavage of a tripeptide which includes the DNP group, the tryptophane fluorescence increases. The proteolytic cleavage of the substrate therefore can be measured by the fluorescence value.
The assay was performed at 25° C. in a freshly prepared 50 mM Tris buffer (pH 8.0) treated with dithiozone to remove traces of heavy metals. 4 mM CaCl2 was added and the buffer saturated with argon. Stock solutions of adamalysin II were prepared by centrifugation of the protein from an ammonium sulfate suspension and subsequent dissolution in the assay buffer. Stock solutions of collagenase were diluted with the assay buffer. Enzyme concentrations were determined by uv measurements (ε280=2.8 10^4 M^−1 cm^−1, ε288: 2.2 10^4 M^−1·cm^−1) and the stock solutions were stored in the cold. […] Substrate fluorescence was measured at an excitation and emission wavelength of λ=320 and 420 nm, respectively, on a spectrofluorimeter (Perkin Elmer, Model 650-40) equipped with a thermostated cell holder. Substrate hydrolysis was monitored for 10 min. immediately after adding the enzyme. All reactions were performed at least in triplicate. The Ki values-of the inhibitors were calculated from the intersection point of the straight lines obtained by the plots of vo/vi vs. [concentration of inhibitor], whereas IC50 values were calculated from plots of vi/vo [concentration of inhibitor] by non-linear regression with simple robust weighting.
50 mM Tris/HCI pH 7.6 (Tris=Tris-(hydroxymethyl)-aminomethane)
100 mM NaCl/10 mM CaCl2/5% MeOH (if necessary)
Enzyme: 8 nM catalytic domain (Met80-Gly242) of human neutrophil collagenase (MMP-8)
Substrate: 10 microM DNP-Pro-Leu-Gly-Leu-Trp-Ala-D-Arg-NH2
A solution of the enzyme and inhibitor in assay buffer (25° C.) was prepared. The reaction was started by giving the substrate into the solution. The cleavage of the fluorogenic substrate was followed by fluorescence spectroscopy with an excitation and emission wavelength of 280 and 350 nm, respectively. The IC50 value was calculated as the inhibitor concentration, which is necessary to decrease the velocity of the reaction to the half in comparison to the reaction without inhibitor.

T1 sequence (P22894 100-262 limits assumed): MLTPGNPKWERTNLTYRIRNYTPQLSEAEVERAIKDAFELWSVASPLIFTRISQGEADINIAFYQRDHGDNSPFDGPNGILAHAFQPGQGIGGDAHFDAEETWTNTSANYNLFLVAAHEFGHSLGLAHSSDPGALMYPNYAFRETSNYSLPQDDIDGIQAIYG

Structure (SMILES)	IC50
O=C1NC(=O)C(NCCN2CCN(c3ncccn3)CC2)(c2ccc(Oc3ccc(Br)cc3)cc2)C(=O)N1 [Example 2 - no. 10, 5-[4-(4-Bromo-phenoxy)-phenyl]-5-[2-(4-pyrimidin-2-yl-piperazin-1-yl)-ethylamino]-pyrimidine-2,4,6-trione]	9 nM

same assay, conditions: catalytic domain of human neutrophil collagenase (MMP-8); substrate DNP-Pro-Leu-Gly-Leu-Trp-Ala-D-Arg-NH2; 25° C.; read-out: IC50 Values of MMP-Inhibitor (vs. MMP-8, catalytic domain)

Structure (SMILES)	IC50
CCOCC(O)CN1CCN(C2(c3ccc(Oc4ccc(Cl)cc4)cc3)C(=O)NC(=O)NC2=O)CC1 (stereo not shown) [Example 2 - no. 3, 5-[4-(4-Chloro-phenoxy)-phenyl]-5-[4-(3-ethoxy-2-hydroxy-propyl)-piperazin-1-yl]-pyrimidine-2,4,6-trione]	15 nM
O=C1NC(=O)C(c2ccc(Oc3ccc(Cl)cc3)cc2)(N2CCN(CCOCCO)CC2)C(=O)N1 [Example 2 - no. 1]	16 nM
O=C1NC(=O)C(c2ccc(Oc3ccc(Cl)cc3)cc2)(N2CCN(CC3COC(=O)O3)CC2)C(=O)N1 (stereo not shown) [Example 2 - no. 2, 5-[4-(4-Chloro-phenoxy)-phenyl]-5-[4-(2-oxo-[1,3]dioxolan-4-ylmethyl)-piperazin-1-yl]-pyrimidine-2,4,6-trione]	9 nM
NS(=O)(=O)c1ccc(CN2CCN(C3(c4ccc(Oc5ccc(Br)cc5)cc4)C(=O)NC(=O)NC3=O)CC2)cc1 [Example 2 - no. 11, 4-(4-5-[4-(4-Bromo-phenoxy)-phenyl]-2,4,6-trioxo-hexahydro-pyrimidin-5-yl-piperazin-1-ylmethyl)-benzenesulfonamide]	11 nM
O=C(O)CCC(=O)N1CCN(C2(c3ccc(Oc4ccccc4)cc3)C(=O)NC(=O)NC2=O)CC1 [Example 3, 4-Oxo-4-4-[2,4,6-trioxo-5-(4-phenoxy-phenyl)-hexahydro-pyrimidin-5-yl]-piperazin-1-yl-butyric acid]	11 nM
O=C1NC(=O)C(c2ccc(Oc3ccc(Cl)cc3)cc2)(N2CCN(CC(O)CO)CC2)C(=O)N1 (stereo not shown) [Example 1, 5-[4-(4-Chloro-phenoxy)-phenyl]-5-[4-(2,3-dihydroxy-propyl)-piperazin-1-yl]-pyrimidine-2,4,6-trione]	11 nM
O=C1NC(=O)C(c2ccc(Sc3ccccc3)cc2)(N2CCN(CCOCCO)CC2)C(=O)N1 [Example 2 - no. 5, 5-4-[2-(2-Hydroxy-ethoxy)-ethyl]-piperazin-1-yl-5-(4-phenylsulfanyl-phenyl)-pyrimidine-2,4,6-trione]	19 nM
O=C1NC(=O)C(c2ccc(Oc3ccc(Cl)c(Cl)c3)cc2)(N2CCN(CCOCCO)CC2)C(=O)N1 [Example 2 - no. 4, 5-[4-(3,4-Dichloro-phenoxy)-phenyl]-5-4-[2-(2-hydroxy-ethoxy)-ethyl]-piperazin-1-yl-pyrimidine-2,4,6-trione]	7 nM

test system: not given; experiment: not given; conditions: not given

Structure (SMILES)	melting point
O=C(O)CCC(=O)N1CCN(C2(c3ccc(Oc4ccccc4)cc3)C(=O)NC(=O)NC2=O)CC1 [Example 3, 4-Oxo-4-4-[2,4,6-trioxo-5-(4-phenoxy-phenyl)-hexahydro-pyrimidin-5-yl]-piperazin-1-yl-butyric acid]	270 to 275 °C
